Like-named read-outs stand apart in the source and are kept apart here.
Legend:
CCRF-CEM = experiment: NCI-60 screening, one-dose (10 µM) and five-dose, SRB; format: cell-based, human; settings: Homo sapiens, 10 μM, Leukemia, read-out: Growth percentage
MOLT-4 = experiment: as above; format: cell-based, human; settings: Homo sapiens; 10 μM; MOLT-4, Leukemia; read-out: Growth percentage
SR = experiment: as above; format: cell-based, human; settings: 10 μM, Leukemia
A549/ATCC = experiment: as above; format: cell-based, human; settings: Homo sapiens, 10 μM, Non-Small-Cell Lung Cancer, read-out: Growth percentage
EKVX = experiment: as above; format: cell-based, human; settings: Homo sapiens, 10 μM, Non-Small-Cell Lung Cancer, read-out: Growth percentage
HOP-92 = experiment: as above; format: cell-based, human; settings: Homo sapiens; 10 μM; HOP-92, Non-Small-Cell Lung Cancer; read-out: Growth percentage
NCI-H226 = experiment: as above; format: cell-based, human; settings: Homo sapiens; 10 μM; NCI-H226, Non-Small-Cell Lung Cancer; read-out: Growth percentage
NCI-H23 = experiment: as above; format: cell-based, human; settings: Homo sapiens; 10 μM; NCI-H23, Non-Small-Cell Lung Cancer; read-out: Growth percentage
NCI-H460 = experiment: as above; format: cell-based, human; settings: Homo sapiens, NCI-H460, 10 μM; NCI-H460, Non-Small-Cell Lung Cancer; read-out: Growth percentage
NCI-H522 = experiment: as above; format: cell-based, human; settings: Homo sapiens; 10 μM; NCI-H522, Non-Small-Cell Lung Cancer; read-out: Growth percentage
COLO 205 = experiment: as above; format: cell-based, human; settings: Homo sapiens; 10 μM; COLO 205, Colon Cancer; read-out: Growth percentage
SF-268 = experiment: as above; format: cell-based, human; settings: Homo sapiens; 10 μM; SF-268, CNS Cancer; read-out: Growth percentage
SF-539 = experiment: as above; format: cell-based, human; settings: Homo sapiens, SF-539, 10 μM; SF-539, CNS Cancer; read-out: Growth percentage
U251 = experiment: as above; format: cell-based, human; settings: Homo sapiens, U-251; 10 μM; U251, CNS Cancer; read-out: Growth percentage
MDA-MB-435 = experiment: as above; format: cell-based; settings: Homo sapiens, MDA-MB-435, read-out: Growth percentage, 10 μM; MDA-MB-435, Melanoma
SK-MEL-2 = experiment: as above; format: cell-based, human; settings: Homo sapiens; 10 μM; SK-MEL-2, Melanoma; read-out: Growth percentage
SK-MEL-28 = experiment: as above; format: cell-based, human; settings: Homo sapiens; 10 μM; SK-MEL-28, Melanoma; read-out: Growth percentage
UACC-62 = experiment: as above; format: cell-based; settings: Homo sapiens
OVCAR-3 = experiment: as above; format: cell-based; settings: Homo sapiens; 10 μM; OVCAR-3, Ovarian Cancer; read-out: Growth percentage
OVCAR-4 = experiment: as above; format: cell-based, human; settings: Homo sapiens; 10 μM; OVCAR-4, Ovarian Cancer; read-out: Growth percentage
OVCAR-8 = experiment: as above; format: cell-based, human; settings: Homo sapiens; 10 μM; OVCAR-8, Ovarian Cancer; read-out: Growth percentage
SK-OV-3 = experiment: as above; format: cell-based, human; settings: Homo sapiens; 10 μM; SK-OV-3, Ovarian Cancer; read-out: Growth percentage
ACHN = experiment: as above; format: cell-based, human; settings: Homo sapiens, 10 μM, Renal Cancer, read-out: Growth percentage
CAKI-1 = experiment: as above; format: cell-based; settings: Homo sapiens; 10 μM; CAKI-1, Renal Cancer; read-out: Growth percentage
RXF 393 = experiment: as above; format: cell-based; settings: Homo sapiens; 10 μM; RXF 393, Renal Cancer; read-out: Growth percentage
TK-10 = experiment: as above; format: cell-based, human; settings: Homo sapiens; 10 μM; TK-10, Renal Cancer; read-out: Growth percentage
BT-549 = experiment: as above; format: cell-based; settings: Homo sapiens; 10 μM; BT-549, Breast Cancer; read-out: Growth percentage
T-47D = experiment: as above; format: cell-based, human; settings: 10 μM, Breast Cancer
MDA-MB-468 = experiment: as above; format: cell-based, human; settings: Homo sapiens, MDA-MB-468, 10 μM; MDA-MB-468, Breast Cancer; read-out: Growth percentage
Description: Control cells Test cells FLD
available usually at NCI library.
An aliquot of frozen drug concentrate is […]

[1] = tested on: 60 human cancer cell lines; experiment: NCI-60 screening, full panel (mean growth, MID a, ranges over all lines); settings: Homo sapiens, read-out: Mean growth percentage
[2] = 10 μM, UACC-62, Melanoma, read-out: Growth percentage

SMILES | activity at 10 µM (CCRF-CEM) | activity at 10 µM (MOLT-4) | Growth percentage (SR) | activity at 10 µM (A549/ATCC) | activity at 10 µM (EKVX) | activity at 10 µM (HOP-92) | activity at 10 µM (NCI-H226) | activity at 10 µM (NCI-H23) | activity at 10 µM (NCI-H460) | activity at 10 µM (NCI-H522) | activity at 10 µM (COLO 205) | activity at 10 µM (SF-268) | activity at 10 µM (SF-539) | activity at 10 µM (U251) | activity at 10 µM (MDA-MB-435) | activity at 10 µM (SK-MEL-2) | activity at 10 µM (SK-MEL-28) | activity at 10 µM (OVCAR-3) | activity at 10 µM (OVCAR-4) | activity at 10 µM (OVCAR-8) | also measured
Cc1nc(SCC(=O)N2CCN(c3cc4c(cc3F)c(=O)c(C(=O)O)cn4C3CC3)CC2)sc1C(=O)/C=C/c1cccc([N+](=O)[O-])c1 [Compound 4g, (E)-1-Cyclopropyl-6-fluoro-7-(4-(2-((4-methyl-5-(3-(3-nitrophenyl)acryloyl)thiazol-2-yl)thio)acetyl)piperazin-1-yl)-4-oxo-1,4-dihydroquinoline-3-carboxylic Acid] | 74.5% | 86.4% | 11.6% | 90.3% | 111% | 68.4% | 102% | 87.8% | 106% | 72.3% | 90.5% | 172% | 64.5% | 50.7% | 71.9% | 68.9% | 80.8% | 163% | 103% | 69.2% | activity at 10 µM (UACC-62; UACC-62, read-out: Growth percentage): 71.9%; activity at 10 µM (SK-OV-3): 121%; activity at 10 µM (ACHN): 110%; activity at 10 µM (CAKI-1): 92.6%; activity at 10 µM (RXF 393): 92.9%; activity at 10 µM (TK-10): 109%; activity at 10 µM (BT-549): 66.9%; Growth percentage (T-47D): 84.1%; activity at 10 µM (MDA-MB-468): 92.8%; activity at 10 µM [1]: 80%
Cc1nc(SCC(=O)N2CCN(c3cc4c(cc3F)c(=O)c(C(=O)O)cn4C3CC3)CC2)sc1C(=O)/C=C/c1ccc([N+](=O)[O-])cc1 [Compound 4h, (E)-1-Cyclopropyl-6-fluoro-7-(4-(2-((4-methyl-5-(3-(4-nitrophenyl)acryloyl)thiazol-2-yl)thio)acetyl)piperazin-1-yl)-4-oxo-1,4-dihydroquinoline-3-carboxylic Acid] | 45.7% | 62.7% | 23.8% | 99.7% | 113% | 126% | 87.9% | 73.2% | 99.4% | 27.9% | 95.9% | 81.1% | 67.9% | 59.9% | 88.4% | 87.7% | 60% | 49.4% | 89.2% | 68.9% | activity at 10 µM (UACC-62; [2]): 59%; activity at 10 µM (SK-OV-3): 119%; activity at 10 µM (ACHN): 96.7%; activity at 10 µM (CAKI-1): 116%; activity at 10 µM (RXF 393): 89.5%; activity at 10 µM (TK-10): 116%; activity at 10 µM (BT-549): 83.9%; Growth percentage (T-47D): 64.1%; activity at 10 µM (MDA-MB-468): 85.2%; activity at 10 µM [1]: 77.6%
Cc1nc(SCC(=O)N2CCN(c3cc4c(cc3F)c(=O)c(C(=O)O)cn4C3CC3)CC2)sc1C(=O)/C=C/c1ccc(N(C)C)cc1 [Compound 4i, (E)-1-Cyclopropyl-7-(4-(2-((5-(3-(4-(dimethylamino)phenyl)acryloyl)-4-methylthiazol-2-yl)thio)acetyl)piperazin-1-yl)-6-fluoro-4-oxo-1,4-dihydroquinoline-3-carboxylic Acid] | 90.6% | 89.2% | 64.5% | 103% | 110% | 91.7% | 100% | 76.2% | 108% | 78.5% | 117% | 140% | 74.4% | 48% | 26.6% | 85.5% | 95.9% | 172% | 102% | 76.5% | activity at 10 µM (UACC-62; [2]): 79.9%; activity at 10 µM (SK-OV-3): 119%; activity at 10 µM (ACHN): 97.7%; activity at 10 µM (CAKI-1): 81.7%; activity at 10 µM (RXF 393): 90.5%; activity at 10 µM (TK-10): 91.8%; activity at 10 µM (BT-549): 12.9%; Growth percentage (T-47D): 88.2%; activity at 10 µM (MDA-MB-468): 87.6%; activity at 10 µM [1]: 83.9%
